Common to all, as to assay type: cell-based
In experiment [1] the target is T1, IKZF1 (Homo sapiens, UniProt Q13422).
T1 construct: expressed in transfected cells
As to the kind of experiment: GFP-IKZF1 cellular degradation assay (eGFP fusion/mCherry reporter, Flip-In 293 cells). As for the experimental part:
IKZF1A and IKZF2A were subcloned into mammalian pcDNA5/FRT Vector (Ampicillin and Hygromycin B resistant) modified to contain MCS-eGFP-P2A-mCherry. […] Following 2-3 passage cycle, FACS (FACSAria™ II, BD) was used to enrich for cells expressing eGFP and mCherry.
(§1) Cells stably expressing the IKZF1A, or IKZF2A GFP fusions with mCherry reporter were seeded at 30-50% confluency in 384-well plates with 50 μL FluoroBrite™ DMEM media (Thermo Fisher Scientific™ A18967) containing 10% FBS per well a day before compound treatment. Compound titrations were dispensed using a D300e Digital Dispenser (HP), normalized to 0.5% DMSO, and incubated with cells for 5 hours.
The assay plate was imaged immediately using an Acumen High Content Imager (TTP Labtech) with 488 nm and 561 nm lasers in 2 μm×1 μm grid per well format. […] A series of image analysis steps (‘image analysis pipeline’) was constructed. First, the red and green channels were aligned and cropped to target the middle of each well (to avoid analysis of heavily clumped cells at the edges), and a background illumination function was calculated for both red and green channels of each well individually and subtracted to correct for illumination variations across the 384-well plate from various sources of error. An additional step was then applied to the green channel to suppress the analysis of large auto fluorescent artifacts and enhance the analysis of cell specific fluorescence by way of selecting for objects under a given size, 30 A.U., and with a given shape, speckles. mCherry-positive cells were then identified in the red channel filtering for objects between 8-60 pixels in diameter and using intensity to distinguish between clumped objects. The green channel was then segmented into GFP positive and negative areas and objects were labeled as GFP positive if at least 40% of it overlapped with a GFP positive area. The fraction of GFP-positive cells/mCherry-positive cells in each well was then calculated, and the green and red images were rescaled for visualization. The concentrations that lead to half degradation at 5 h (DC50, 5h) were calculated using the nonlinear fit variable slope model (GraphPad Software).

Experiment [2] deals with IKZF2. As to the kind of experiment: GFP-IKZF2 cellular degradation assay (eGFP fusion/mCherry reporter, Flip-In 293 cells). To be noted: Flip-In 293 cells stably expressing IKZF2 GFP fusion with mCherry reporter, 5 h. As to the method:
IKZF1A and IKZF2A were subcloned into mammalian pcDNA5/FRT Vector (Ampicillin and Hygromycin B resistant) modified to contain MCS-eGFP-P2A-mCherry. Stable cell lines expressing eGFP-protein fusion and mCherry reporter were generated using Flip-In 293 system. Plasmid (0.3 μg) and pOG44 (4.7 μg) DNA were preincubated in 100 μL of Opti-MEM™ I (Gibco™, Life Technologies™) media containing 0.05 mg/mL Lipofectamine™ 2000 (Invitrogen™) for 20 min and added to Flip-In 293 cells containing 1.9 mL of DMEM media (Gibco™, Life Technologies™) per well in a 6-well plate format (Falcon, 353046). Cells were propagated for 48 h and were then transferred into a 10 cm^2 plate (Corning, 430165) in DMEM media containing 50 μg/mL of Hygromycin B (REF 10687010, Invitrogen™) as a selection marker. Following 2-3 passage cycle, FACS (FACSAria™ II, BD) was used to enrich for cells expressing eGFP and mCherry.
as §1
The assay plate was imaged immediately using an Acumen High Content Imager (TTP Labtech) with 488 nm and 561 nm lasers in […] per well format. The resulting images were analyzed using CellProfiler (Carpenter et al., Genome Biol. 2006, 7:R100). A series of image analysis steps (‘image analysis pipeline’) was constructed. First, the red and green channels were aligned and cropped to target the middle of each well (to avoid analysis of heavily clumped cells at the edges), and a background illumination function was calculated for both red and green channels of each well individually and subtracted to correct for illumination variations across the 384-well plate from various sources of error. An additional step was then applied to the green channel to suppress the analysis of large auto fluorescent artifacts and enhance the analysis of cell specific fluorescence by way of selecting for objects under a given size, 30 A.U., and with a given shape, speckles. mCherry-positive cells were then identified in the red channel filtering for objects between 8-60 pixels in diameter and using intensity to distinguish between clumped objects. The green channel was then segmented into GFP positive and negative areas and objects were labeled as GFP positive if at least 40% of it overlapped with a GFP positive area. The fraction of GFP-positive cells/mCherry-positive cells in each well was then calculated, and the green and red images were rescaled for visualization. The concentrations that lead to half degradation at 5 h (DC50, 5h) were calculated using the nonlinear fit variable slope model (GraphPad Software).

In experiment [3] the target is T2, IKZF1 (Homo sapiens, UniProt Q13422+Q96SW2).
T2 construct: knocked into the endogenous IKZF2 or IKZF1 locus of Molt4 cells; endogenous in cells; host or cells: Molt4 (CRISPR/Cas9 HiBit knock-in)
T2 sequence (Q13422 whole entry): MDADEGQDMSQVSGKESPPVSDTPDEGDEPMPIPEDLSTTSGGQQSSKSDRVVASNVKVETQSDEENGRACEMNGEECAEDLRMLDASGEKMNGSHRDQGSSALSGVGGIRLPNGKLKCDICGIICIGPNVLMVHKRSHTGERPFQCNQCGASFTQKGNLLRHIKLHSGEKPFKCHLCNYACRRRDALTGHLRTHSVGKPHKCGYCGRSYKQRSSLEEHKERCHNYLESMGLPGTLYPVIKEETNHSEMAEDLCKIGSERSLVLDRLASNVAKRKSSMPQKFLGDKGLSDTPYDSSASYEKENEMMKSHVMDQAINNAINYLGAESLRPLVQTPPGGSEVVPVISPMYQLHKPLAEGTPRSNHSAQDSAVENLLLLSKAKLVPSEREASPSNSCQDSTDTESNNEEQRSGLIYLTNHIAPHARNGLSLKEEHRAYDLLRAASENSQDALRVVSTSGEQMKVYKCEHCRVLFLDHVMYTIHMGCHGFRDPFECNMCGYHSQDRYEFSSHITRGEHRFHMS
T2 sequence (Q96SW2 whole entry): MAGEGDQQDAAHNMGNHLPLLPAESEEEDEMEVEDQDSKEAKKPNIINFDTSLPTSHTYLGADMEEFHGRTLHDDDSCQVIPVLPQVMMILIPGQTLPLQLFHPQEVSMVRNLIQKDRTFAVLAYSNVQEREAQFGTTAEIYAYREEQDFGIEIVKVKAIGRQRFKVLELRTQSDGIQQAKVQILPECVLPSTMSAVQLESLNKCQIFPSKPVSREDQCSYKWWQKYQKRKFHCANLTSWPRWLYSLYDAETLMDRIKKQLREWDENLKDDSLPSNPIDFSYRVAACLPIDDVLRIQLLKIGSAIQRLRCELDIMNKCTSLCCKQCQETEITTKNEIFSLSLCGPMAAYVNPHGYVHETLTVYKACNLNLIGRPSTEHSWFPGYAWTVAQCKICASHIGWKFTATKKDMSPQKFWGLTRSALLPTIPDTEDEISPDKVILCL
T2 sequence (Q16531 whole entry partner): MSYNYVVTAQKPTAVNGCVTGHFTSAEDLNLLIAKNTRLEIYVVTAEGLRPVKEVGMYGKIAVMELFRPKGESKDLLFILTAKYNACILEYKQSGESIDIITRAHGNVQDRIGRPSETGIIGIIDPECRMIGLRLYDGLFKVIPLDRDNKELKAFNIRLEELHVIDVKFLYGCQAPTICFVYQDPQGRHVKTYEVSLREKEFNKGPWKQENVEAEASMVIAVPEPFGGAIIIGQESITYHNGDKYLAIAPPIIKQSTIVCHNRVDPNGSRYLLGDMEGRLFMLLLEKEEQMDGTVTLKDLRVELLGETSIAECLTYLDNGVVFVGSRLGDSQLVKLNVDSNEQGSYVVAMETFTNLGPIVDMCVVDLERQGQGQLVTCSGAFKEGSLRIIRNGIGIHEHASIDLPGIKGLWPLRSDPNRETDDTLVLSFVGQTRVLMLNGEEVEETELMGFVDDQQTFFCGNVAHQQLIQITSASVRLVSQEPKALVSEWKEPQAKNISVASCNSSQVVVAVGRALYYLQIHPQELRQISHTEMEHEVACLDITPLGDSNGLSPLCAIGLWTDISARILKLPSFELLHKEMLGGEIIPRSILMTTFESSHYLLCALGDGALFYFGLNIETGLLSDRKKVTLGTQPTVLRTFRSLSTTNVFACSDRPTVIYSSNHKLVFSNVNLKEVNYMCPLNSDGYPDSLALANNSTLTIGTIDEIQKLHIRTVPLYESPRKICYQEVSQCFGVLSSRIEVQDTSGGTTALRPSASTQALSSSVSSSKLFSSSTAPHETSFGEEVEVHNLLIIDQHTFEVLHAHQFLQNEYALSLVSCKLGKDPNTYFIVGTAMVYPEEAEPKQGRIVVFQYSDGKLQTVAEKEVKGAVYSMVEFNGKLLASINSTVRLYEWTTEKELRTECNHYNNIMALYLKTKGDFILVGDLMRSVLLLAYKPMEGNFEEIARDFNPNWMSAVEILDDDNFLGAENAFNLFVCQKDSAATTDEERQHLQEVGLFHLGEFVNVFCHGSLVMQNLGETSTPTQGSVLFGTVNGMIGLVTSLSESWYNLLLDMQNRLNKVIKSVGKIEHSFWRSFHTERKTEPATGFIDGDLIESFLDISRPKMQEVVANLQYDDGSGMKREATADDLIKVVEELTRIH
As to the kind of experiment: HiBit-IKZF1 degradation assay in Molt4 cells. As for the experimental part: (§2) The HiBit tag was knocked into the endogenous IKZF2 or IKZF1 locus of Molt4 cells to generate a HiBit-IKZF2 or HiBit-IKZF1 fusion proteins via CRISPR/Cas9 gene editing. Cells were then treated with a 12 point concentration curve of the indicated compounds, and luminescence (corresponding to Helios abundance) was detected after 6 hours using the Nano-Glo® HiBit Lytic Detection system (Promega™). The concentration necessary to achieve 50% degradation (DC50) was calculated using Prism (GraphPad).

In experiment [4] the target is T3, IKZF2 (Homo sapiens, UniProt Q96SW2+Q9UKS7).
T3 construct: knocked into the endogenous IKZF2 or IKZF1 locus of Molt4 cells; endogenous in cells; host or cells: Molt4 (CRISPR/Cas9 HiBit knock-in)
T3 sequence (Q9UKS7 whole entry): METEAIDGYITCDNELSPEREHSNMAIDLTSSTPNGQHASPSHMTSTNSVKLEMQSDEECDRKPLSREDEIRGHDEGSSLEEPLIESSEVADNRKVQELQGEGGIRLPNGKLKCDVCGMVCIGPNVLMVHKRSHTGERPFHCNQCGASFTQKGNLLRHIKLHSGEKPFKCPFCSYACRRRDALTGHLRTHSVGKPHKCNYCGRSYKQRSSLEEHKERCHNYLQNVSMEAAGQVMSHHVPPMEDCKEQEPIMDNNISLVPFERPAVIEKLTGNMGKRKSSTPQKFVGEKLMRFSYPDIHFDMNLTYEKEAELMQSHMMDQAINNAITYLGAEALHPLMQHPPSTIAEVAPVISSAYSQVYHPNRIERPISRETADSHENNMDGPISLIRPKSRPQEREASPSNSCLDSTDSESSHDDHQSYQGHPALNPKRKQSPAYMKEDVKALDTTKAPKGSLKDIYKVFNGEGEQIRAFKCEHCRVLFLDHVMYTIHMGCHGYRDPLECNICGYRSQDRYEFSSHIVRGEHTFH
T3 sequence (Q96SW2 whole entry): as the sequence (Q96SW2 whole entry) above
T3 sequence (Q16531 whole entry partner): as the sequence (Q16531 whole entry partner) above
The experiment can be described thus: HiBit-IKZF2 degradation assay in Molt4 cells. As to the method: as §2
(In general: HiBiT is a short tag that completes a luciferase, so light tracks the accessible tagged protein.)

The mark [5] stands for this setting: Flip-In 293 cells stably expressing IKZF1 GFP fusion with mCherry reporter, 5 h; read-out: GFP IKZF1 DC50.
[6] abbreviates: read-out: GFP IKZF1 DC50; Flip-In 293 cells stably expressing IKZF1 GFP fusion with mCherry reporter, 5 h.
Setting [7] is: read-out: IKZF1 DC50; Molt4 cells with endogenous HiBit-IKZF1 knock-in, 6 hours, Nano-Glo HiBit luminescence.
Setting [8] is: read-out: IKZF2 DC50; Molt4 cells with endogenous HiBit-IKZF2 knock-in, 6 hours, Nano-Glo HiBit luminescence.

Read-outs that look alike come from different tables or passages of the source.

T1 sequence (Q13422 83-213 isoform Q13422-7 limits assumed): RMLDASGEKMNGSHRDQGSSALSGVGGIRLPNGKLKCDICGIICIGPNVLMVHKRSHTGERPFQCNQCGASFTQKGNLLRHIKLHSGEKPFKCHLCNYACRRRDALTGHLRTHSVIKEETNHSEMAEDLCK
T1 sequence (Q96SW2 whole entry partner): as the sequence (Q96SW2 whole entry) above
T1 sequence (Q16531 whole entry partner): as the sequence (Q16531 whole entry partner) above

Usually DC50 stands for the midpoint of the concentration-degradation curve. `CC(CC(=O)Nc1cccnc1Cl)c1cccc(NC2=CC(=O)N(C3CCC(=O)NC3=O)C2=O)c1` (centres unmarked) [Compound 7]: the figures for the DC50 at IKZF1 [1] (setting [5]) and in the experiment with IKZF2 [2] were 0.023 µM and 0.048 µM, respectively.
Taken in the same sequence, the figures for `CC(CC(=O)Nc1ccc(Cl)nc1)c1cccc(NC2=CC(=O)N(C3CCC(=O)NC3=O)C2=O)c1` (centres unmarked) [Compound 8] were 0.01 µM and 0.017 µM.
Taken in the same sequence, the figures for `CC(CC(=O)Nc1ccnc(Cl)c1)c1cccc(NC2=CC(=O)N(C3CCC(=O)NC3=O)C2=O)c1` (centres unmarked) [Compound 9] were 0.08 µM and 0.085 µM.
Take `Cc1ccc(NC(=O)CC2(c3cccc(NC4=CC(=O)N(C5CCC(=O)NC5=O)C4=O)c3)CCOCC2)cc1Cl` (centres unmarked) [Compound 18]: the DC50 is 0.039 µM at IKZF1 [1] (setting [5]) and 0.0088 µM with IKZF2 [2].
The like results for `Cc1ccc(NC(=O)C2CC2c2cccc(NC3=CC(=O)N(C4CCC(=O)NC4=O)C3=O)c2)cc1Cl` (centres unmarked) [Compound 21] were, in that order, 0.002 µM and 0.0044 µM.
The like results for `O=C1CCC(N2C(=O)C=C(Nc3cccc(C4CC(C(=O)Nc5cccc(C(F)(F)F)c5)C4)c3)C2=O)C(=O)N1` (centres unmarked) [Compound 22] were, in that order, 0.014 µM and 0.134 µM.
Taken in the same sequence, the figures for `O=C1CCC(N2C(=O)C=C(Nc3cccc([C@H]4CNCC4C(=O)Nc4cccc(C(F)(F)F)c4)c3)C2=O)C(=O)N1` (some centres unmarked) [Compound 23] were 0.038 µM and 0.101 µM.
As to `CC(c1cccc(NC2=CC(=O)N(C3CCC(=O)NC3=O)C2=O)c1)N1CC(c2ccccc2)C1` (centres unmarked) [Compound 25], the figures for the half-maximal degradation concentration (DC50) on IKZF1 [1] (setting [5]) and with IKZF2 [2] were 0.0058 µM and 0.013 µM, respectively.
Taken in the same sequence, the figures for `CC(c1cccc(NC2=CC(=O)N(C3CCC(=O)NC3=O)C2=O)c1)N1CC(Cc2ccccc2)C1` (centres unmarked) [Compound 26] were 0.0028 µM and 0.0089 µM.
The like results for `CC(c1cccc(NC2=CC(=O)N(C3CCC(=O)NC3=O)C2=O)c1)N1CC(Oc2ccccc2)C1` (centres unmarked) [Compound 27] were, in that order, 0.0064 µM and 0.019 µM.
Taken in the same sequence, the figures for `Cc1ccc(NC(=O)CC(c2cccc(NC3=CC(=O)N(C4CCC(=O)NC4=O)C3=O)c2)C(C)C)cc1Cl` (centres unmarked) [Compound 30, N-(3-chloro-4-methylphenyl)-3-(3-((1-(2,6-dioxopiperidin-3-yl)-2,5-dioxo-2,5-dihydro-1H-pyrrol-3-yl)amino)phenyl)-4-methylpentanamide] were 0.05 µM and 0.0022 µM.
With `Cc1ccc(NC(=O)CN(C)c2cccc(NC3=CC(=O)N(C4CCC(=O)NC4=O)C3=O)c2)cc1Cl` (centres unmarked) [Compound 44, N-(3-chloro-4-methylphenyl)-2-[(3-{[1-(2,6-dioxopiperidin-3-yl)-2,5-dioxo-2,5-dihydro-1H-pyrrol-3-yl]amino}phenyl)(methyl)amino]acetamide], the DC50 at IKZF1 [1] (setting [5]) stood at 0.0037 µM; with IKZF2 [2], 0.0069 µM.
For the compound `CN(CCc1ccc(C(F)(F)F)c(Cl)c1)Cc1cccc(NC2=CC(=O)N(C3CCC(=O)NC3=O)C2=O)c1` (centres unmarked) [Compound 48, 3-(3-((-(((3-chloro-4-(trifluoromethyl)phenethyl)(methyl)amino)methyl)phenyl)amino)-2,5-dioxo-2,5-dihydro-1H-pyrrol-1-yl)piperidine-2,6-dione], the results for the 50% degradation concentration (DC50) at IKZF1 [1] (setting [6]) and in the experiment with IKZF2 [2] were 0.0037 µM and 0.019 µM, respectively.
Take `CCC(NCCc1ccc(C(F)(F)F)c(Cl)c1)c1cccc(NC2=CC(=O)N(C3CCC(=O)NC3=O)C2=O)c1` (centres unmarked) [Compound 60, 3-(3-((3-(1-((3-chloro-4-(trifluoromethyl)phenethyl)-amino)propyl)phenyl)amino)-2,5-dioxo-2,5-dihydro-1H-pyrrol-1-yl)piperidine-2,6-dione]: the DC50 at IKZF1 [1] (setting [6]) is 0.018 µM; on IKZF1 [3] (setting [7]), 0.24 µM; in the experiment on IKZF2 [2], 0.006 µM; at IKZF2 [4] (setting [8]), 0.042 µM.
Turning to `CC(C)(NCc1cccc(C(F)(F)F)c1)c1cccc(NC2=CC(=O)N(C3CCC(=O)NC3=O)C2=O)c1` (centres unmarked) [Compound 64], the DC50 is 0.0068 µM at IKZF1 [1] (setting [5]) and 0.0092 µM with IKZF2 [2].
Consider `CC(C)(NCCc1ccc(C(F)(F)F)c(Cl)c1)c1cccc(NC2=CC(=O)N(C3CCC(=O)NC3=O)C2=O)c1` (centres unmarked) [Compound 66, 3-(3-((3-(2-((3-chloro-4-(trifluoromethyl)phenethyl)amino)propan-2-yl)phenyl)amino)-2,5-dioxo-2,5-dihydro-1H-pyrrol-1-yl)piperidine-2,6-dione], for which the DC50 at IKZF1 [1] (setting [6]) was found to be 0.0011 µM; at IKZF1 [3] (setting [7]) it was 0.0038 µM; in the experiment on IKZF2 [2] it was 0.0012 µM; at IKZF2 [4] (setting [8]) it was 0.0023 µM.
Take `CN(CCc1ccc(C(F)(F)F)c(Cl)c1)C(C)(C)c1cccc(NC2=CC(=O)N(C3CCC(=O)NC3=O)C2=O)c1` (centres unmarked) [Compound 67, 3-(3-((3-(2-((3-chloro-4-(trifluoromethyl)phenethyl)(methyl)amino)propan-2-yl)phenyl)-amino)-2,5-dioxo-2,5-dihydro-1H-pyrrol-1-yl)piperidine-2,6-dione]: the DC50 on IKZF1 [1] (setting [5]) came out at 0.011 µM; at IKZF1 [3] (Molt4 cells with endogenous HiBit-IKZF1 knock-in, 6 hours, Nano-Glo HiBit luminescence; read-out: IKZF1 DC50), 0.047 µM; in the experiment on IKZF2 [2], 0.012 µM; on IKZF2 [4] (Molt4 cells with endogenous HiBit-IKZF2 knock-in, 6 hours, Nano-Glo HiBit luminescence; read-out: IKZF2 DC50) it was 0.025 µM.
In the case of `CN(C)CC(CC(=O)Nc1ccc(C(F)(F)F)c(Cl)c1)c1cccc(NC2=CC(=O)N(C3CCC(=O)NC3=O)C2=O)c1` (centres unmarked) [Compound 73, N-(3-chloro-4-(trifluoromethyl)phenyl)-4-(dimethylamino)-3-(3-((1-(2,6-dioxopiperidin-3-yl)-2,5-dioxo-2,5-dihydro-1H-pyrrol-3-yl)amino)phenyl)butanamide], the results for the DC50 on IKZF1 [1] (setting [5]) and in the experiment with IKZF2 [2] were 0.0052 µM and 0.0044 µM, respectively.
Turning to `CC(C)(CCNc1ccc(C(F)(F)F)c(Cl)c1)c1cccc(NC2=CC(=O)N(C3CCC(=O)NC3=O)C2=O)c1` (centres unmarked) [Compound 80, 3-(3-((3-(4-((3-chloro-4-(trifluoromethyl)phenyl)amino)-2-methylbutan-2-yl)phenyl)amino)-2,5-dioxo-2,5-dihydro-1H-pyrrol-1-yl)piperidine-2,6-dione], the DC50 was determined as 0.05 µM at IKZF1 [1] (setting [5]) and 0.024 µM with IKZF2 [2].
